Test results: patent US11000033B2, “Ketone or oxime compound, and herbicide” (NISSAN CHEMICAL CORPORATION, priority 2014, dated 2021)

Assays:
Format in all cases: in vivo
[1] = test system: Echinochloa oryzacola Vasing.; test: Test Example 1: herbicidal activity, application before weed generation in submerged conditions (symbol A); conditions: application herbicide amount 320 g/ha
Summary of the method: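 Scores run 0 to 5 by herbicidal ratio, with 5 meaning 90% or more and 0 meaning 5% or lower, read 3 weeks after treatment. Compound was applied as a diluted emulsion to the water surface of submerged alluvial-soil pots on the day weed seeds were sown.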

[2] = test system: transplanted rice plant; test: Test Example 1: effect on crop, application before weed generation in submerged conditions (symbol a); conditions: application herbicide amount 320 g/ha
Summary of the method: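 Alluvial soil pots flooded to 4 cm water, sown with Echinochloa oryzacola, Scirpus juncoides and Monochoria vaginalis, then transplanted with 2.5 leaf stage rice seedlings; pre-emergence application. Greenhouse 25° C. to 30° C.; scored 0–5 by herbicidal ratio 3 weeks after application.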

[3] = test system: Scirpus juncoides; test: Test Example 2: herbicidal activity, application during weed generation in submerged conditions (symbol B); conditions: Table 23; application herbicide amount 320 g/ha; grade 0-5 by criteria of Test Example 1
Summary of the method: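 Seeds sown in flooded alluvial soil (4 cm water) were grown in a 25-30° C greenhouse. At the one- to two-leaf stage, diluted emulsion of compound was applied to the water surface at a predetermined rate. Effect was scored 3 weeks later.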

[4] = test system: Echinochloa crus-galli var. crus-galli; test: Test Example 3: herbicidal effect by foliage application, Wagner pot (symbol H); conditions: application herbicide amount 320 g/ha
Summary of the method: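 Plants sown in submerged alluvial soil (water depth 0.1–0.5 cm) in a 25–30 °C greenhouse and grown 14 days. An emulsion of the compound diluted in water to a set herbicide amount was sprayed uniformly on foliage. Effect on each plant scored 3 weeks after application.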

[5] = test system: directly sowed rice plant; test: Test Example 3: effect on crop by foliage application, Wagner pot (symbol b); conditions: application herbicide amount 320 g/ha
Summary of the method: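 Wagner pot (1/10000 are), alluvial soil, submerged 0.1–0.5 cm; sown E. crus-galli var. crus-galli, L. chinensis, C. difformis, rice; greenhouse 25–30 °C.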

[6] = test system: wheat; test: Test Example 4: effect on crop by soil treatment (symbol e); conditions: application herbicide amount 320 g/ha
Summary of the method: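 Seeds were sown in spots on sterilized diluvial soil in a plastic box and covered with about 1.5 cm of soil. Plants were then grown in a greenhouse at 25° C. to 30° C.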

[7] = test system: Alopecurus myosuroides; test: Test Example 5: herbicidal effect by foliage application, plastic box (symbol J); conditions: 320 g/ha, 3 weeks after application
Summary of the method: (§1)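 Visual herbicidal score, taken three weeks post-application, of seedlings sprayed on the foliage with water-diluted emulsion at a predetermined amount; plants were 14 days old, greenhouse-raised at 25° C. to 30° C.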

[8] = test system: Amaranthus retroflexus; test: Test Example 5: herbicidal effect by foliage application, plastic box (symbol N); conditions: 320 g/ha, 3 weeks after application
Summary of the method: as §1

[9] = test system: corn; test: Test Example 5: effect on crop by foliage application, plastic box (symbol c); conditions: 320 g/ha, 3 weeks after application
Summary of the method: (§2)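 Crop and weed seeds sown in spots in sterilized diluvial soil in plastic boxes and covered with about 1.5 cm soil. Plants raised in a greenhouse at 25° C. to 30° C. for foliar application.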

[10] = test system: rice plant; test: Test Example 5: effect on crop by foliage application, plastic box (symbol b); conditions: 320 g/ha, 3 weeks after application
Summary of the method: as §2

[11] = test system: wheat; test: Test Example 5: effect on crop by foliage application, plastic box (symbol e); conditions: 320 g/ha, 3 weeks after application
Summary of the method: as §2

[12] = test system: beet; test: Test Example 5: effect on crop by foliage application, plastic box (symbol f); conditions: 320 g/ha, 3 weeks after application
Summary of the method: as §2

[13] = test system: Stellaria media; test: Test Example 5: herbicidal effect by foliage application, plastic box (symbol P); conditions: 320 g/ha, 3 weeks after application
Summary of the method: as §1

Compound | Herbicidal effect grade, A: Echinochloa oryzacola Vasing. [1] | Effect grade on crop, a: transplanted rice plant [2] | Herbicidal effect grade, B: Scirpus juncoides [3] | herbicidal effect on H (Echinochloa crus-galli var. crus-galli), grade 0-5 [4] | effect on crop b (directly sowed rice plant), grade 0-5 [5] | e (wheat) effect on crop grade [6] | J: Alopecurus myosuroides, herbicidal effect grade [7] | N: Amaranthus retroflexus, herbicidal effect grade [8] | c: corn, effect on crop grade [9] | b: directly sowed rice plant, effect on crop grade [10] | e: wheat, effect on crop grade [11] | f: beet, effect on crop grade [12] | Effect on crop grade, e: wheat [6] | J: Alopecurus myosuroides, herbicidal effect (criteria of Test Example 1) [7] | N: Amaranthus retroflexus, herbicidal effect (criteria of Test Example 1) [8] | P: Stellaria media, herbicidal effect (criteria of Test Example 1) [13] | c: corn, effect on crop (criteria of Test Example 1) [9] | b: directly sowed rice plant, effect on crop (criteria of Test Example 1) [10] | e: wheat, effect on crop (criteria of Test Example 1) [11] | f: beet, effect on crop (criteria of Test Example 1) [12]
CON=C(C)CC1CC(OC(=O)C(C)(C)OC(C)=O)=C(c2c(C)cc(C)cc2C)C1=O (centres unmarked) [1-034] | 5 (Herbicidal ratio of 90% or more (almost completely withered)) | 5 (Herbicidal ratio of 90% or more (almost completely withered)) | 3 (Herbicidal ratio of 40% or higher and lower than 70%) | 5 (Herbicidal ratio of 90% or more (almost completely withered)) | 5 (Herbicidal ratio of 90% or more (almost completely withered)) | 4 (Herbicidal ratio of 70% or higher and lower than 90%) | 5 (Herbicidal ratio of 90% or more (almost completely withered)) | 3 (Herbicidal ratio of 40% or higher and lower than 70%) | 4 (Herbicidal ratio of 70% or higher and lower than 90%) | 5 (Herbicidal ratio of 90% or more (almost completely withered)) | 5 (Herbicidal ratio of 90% or more (almost completely withered)) | 4 (Herbicidal ratio of 70% or higher and lower than 90%) |  |  |  |  |  |  |  | 
CON=C(C)CC1CC(OC(=O)CCC2CCCCC2)=C(c2c(C)cc(C)cc2C)C1=O (centres unmarked) [1-035] | 5 (Herbicidal ratio of 90% or more (almost completely withered)) |  | 4 (Herbicidal ratio of 70% or higher and lower than 90%) | 5 (Herbicidal ratio of 90% or more (almost completely withered)) | 5 (Herbicidal ratio of 90% or more (almost completely withered)) | 4 (Herbicidal ratio of 70% or higher and lower than 90%) | 5 (Herbicidal ratio of 90% or more (almost completely withered)) | 3 (Herbicidal ratio of 40% or higher and lower than 70%) | 4 (Herbicidal ratio of 70% or higher and lower than 90%) | 5 (Herbicidal ratio of 90% or more (almost completely withered)) | 5 (Herbicidal ratio of 90% or more (almost completely withered)) | 2 (Herbicidal ratio of 20% or higher and lower than 40%) |  |  |  |  |  |  |  | 
CON=C(C)CC1CC(OC(=O)C2(C)CC2(Cl)Cl)=C(c2c(C)cc(C)cc2C)C1=O (centres unmarked) [1-036] | 5 (Herbicidal ratio of 90% or more (almost completely withered)) | 5 (Herbicidal ratio of 90% or more (almost completely withered)) | 4 (Herbicidal ratio of 70% or higher and lower than 90%) | 5 (Herbicidal ratio of 90% or more (almost completely withered)) | 5 (Herbicidal ratio of 90% or more (almost completely withered)) | 3 (Herbicidal ratio of 40% or higher and lower than 70%) | 5 (Herbicidal ratio of 90% or more (almost completely withered)) | 4 (Herbicidal ratio of 70% or higher and lower than 90%) | 1 (Herbicidal ratio of 5% or higher and lower than 20%) | 5 (Herbicidal ratio of 90% or more (almost completely withered)) | 5 (Herbicidal ratio of 90% or more (almost completely withered)) | 3 (Herbicidal ratio of 40% or higher and lower than 70%) |  |  |  |  |  |  |  | 
COCCOC1=C(c2c(C)cc(C)cc2C)C(=O)C(CC(C)=NOC)C1 (centres unmarked) [1-037] | 0 (Herbicidal ratio of 5% or lower (almost no effect)) | 0 (Herbicidal ratio of 5% or lower (almost no effect)) | 0 (Herbicidal ratio of 5% or lower (almost no effect)) | 0 (Herbicidal ratio of 5% or lower (almost no effect)) | 0 (Herbicidal ratio of 5% or lower (almost no effect)) | 0 (Herbicidal ratio of 5% or lower (almost no effect)) | 0 (Herbicidal ratio of 5% or lower (almost no effect)) | 0 (Herbicidal ratio of 5% or lower (almost no effect)) | 0 (Herbicidal ratio of 5% or lower (almost no effect)) | 0 (Herbicidal ratio of 5% or lower (almost no effect)) | 0 (Herbicidal ratio of 5% or lower (almost no effect)) | 0 (Herbicidal ratio of 5% or lower (almost no effect)) |  |  |  |  |  |  |  | 
CC(=O)CC1CC(O)=C(c2c(C)cc(Oc3ccccc3)cc2C)C1=O (centres unmarked) [7-014] |  |  |  | 4 (Herbicidal ratio of 70% or higher and lower than 90%) | 5 (Herbicidal ratio of 90% or more (almost completely withered)) |  |  |  |  |  |  |  | 0 (Herbicidal ratio of 5% or lower (almost no effect)) | 0 (Herbicidal ratio of 5% or lower (almost no effect)) | 0 (Herbicidal ratio of 5% or lower (almost no effect)) | 0 (Herbicidal ratio of 5% or lower (almost no effect)) | 3 (Herbicidal ratio of 40% or higher and lower than 70%) | 3 (Herbicidal ratio of 40% or higher and lower than 70%) | 0 (Herbicidal ratio of 5% or lower (almost no effect)) | 0 (Herbicidal ratio of 5% or lower (almost no effect))
CC(=O)CC1CC(O)=C(c2c(C)cc(-c3ccc(OC(F)(F)F)cc3)cc2C)C1=O (centres unmarked) [7-016] |  |  |  | 0 (Herbicidal ratio of 5% or lower (almost no effect)) | 0 (Herbicidal ratio of 5% or lower (almost no effect)) |  |  |  |  |  |  |  | 0 (Herbicidal ratio of 5% or lower (almost no effect)) | 0 (Herbicidal ratio of 5% or lower (almost no effect)) | 0 (Herbicidal ratio of 5% or lower (almost no effect)) | 0 (Herbicidal ratio of 5% or lower (almost no effect)) | 0 (Herbicidal ratio of 5% or lower (almost no effect)) | 0 (Herbicidal ratio of 5% or lower (almost no effect)) | 0 (Herbicidal ratio of 5% or lower (almost no effect)) | 0 (Herbicidal ratio of 5% or lower (almost no effect))
CC(=O)CC1CC(O)=C(c2c(C)cc(-c3ncccn3)cc2C)C1=O (centres unmarked) [7-017] |  |  |  | 5 (Herbicidal ratio of 90% or more (almost completely withered)) | 5 (Herbicidal ratio of 90% or more (almost completely withered)) |  |  |  |  |  |  |  | 0 (Herbicidal ratio of 5% or lower (almost no effect)) | 2 (Herbicidal ratio of 20% or higher and lower than 40%) | 0 (Herbicidal ratio of 5% or lower (almost no effect)) | 0 (Herbicidal ratio of 5% or lower (almost no effect)) | 0 (Herbicidal ratio of 5% or lower (almost no effect)) | 5 (Herbicidal ratio of 90% or more (almost completely withered)) | 0 (Herbicidal ratio of 5% or lower (almost no effect)) | 0 (Herbicidal ratio of 5% or lower (almost no effect))
